# According to PubChem BioAssay AID1963828 (Molecular Pharmacology Branch, DTP, NCI, 2024):
# Tested on: 991263-137-R1-J2-PDC complex spheroid viability
# Experiment: Anticancer human tumor 991263-137-R1-J2-PDC patient-derived colon adenocarcinoma cell line growth inhibition [POLQ]
# Settings: for IC50: curve of first compound; for viability, T/C: stronger effect = lower value
# Description: Multicellular complex tumor spheroid response to Polymerase (POL) inhibitors (novobiocin, ART-558, RP6685) in combination with a variety of drugs and investigational agents in selected tumor cell lines
# The POL inhibitors (novobiocin, ART-558, and RP6685) were evaluated both individually and in combination with standard of care and investigational anticancer small molecules within a complex spheroid model of solid tumors. . Complex spheroids include a stromal component modeled by human endothelial cells (HUVEC) and fibroblasts modeled by human mesenchymal stem cells (MSCs). The concentration ranges selected for each drug and investigational agent were based upon clinically achievable concentrations if the clinical Cmax of the agent was known.
# Compounds. The drugs and investigational agents: novobiocin (NSC847541), ART-558 (NSC835418), RP-6685 (NSC848927), peposertib (NSC802822), ceralasertib (NSC780249), elimusertib (NSC800525), camonsertib (NSC841442), AZD-1390 (NSC803789), olaparib (NSC753686), talazoparib (NSC767125), rucaparib (NSC756644), sotorasib (NSC818433), MRTX-1133 (NSC836407), SN-38 (NSC673596), topotecan (NSC609699), epotoside (NSC141540), doxorubicin (NSC123127), gemcitabine (NSC613327), 5-fluorouracil (NSC19893), paclitaxel (NSC125973), vemurafenib (NSC761431), MSA-2 (NSC828583), SN-011 (NSC837082), adavosertib (NSC754352), prexasertib (NSC758257), carboplatin (NSC241240) and oxaliplatin (NSC266046), were obtained from the National Cancer Institute (NCI) Developmental Therapeutics Program Chemical Repository (21). The FDA-approved anticancer drug set is available from the Developmental Therapeutics Program at https://dtp.cancer.gov/organization/dscb/obtaining/. […] The stock solutions were prepared in dimethyl sulfoxide (DMSO, Sigma-Aldrich, St. Louis, MO, cat. D2650), except for the platinum compounds which were prepared in saline (Quality Biological, Gaithersburg, MD, cat. 114-055-101), at 800-fold the tested concentration and stored at -70 degrees C prior to their use. All drugs and investigational agents were tested over a range starting from a high concentration at or near the clinical Cmax and decreasing in half-log increments. If the clinical Cmax for an agent had not been determined, the highest concentration tested was 10 microM, except for SN-38, which was tested at a high concentration of 1 microM.
# Cell Culture. All cells were maintained in an incubator at 37 degrees C and 5% CO2 with 95% humidity. The PDC lines were cultured according to standard operating procedures established by the NCI PDMR (https://pdmr.cancer.gov). Table 3 of the manuscript, lists the cell lines along with the number of the three cell types plated to form the mct-spheroids and media for tumor cell growth. After thawing, all PDC lines, except 997537-175-T-J1-PDC and 415267-285-R-J2-PDC, were cultured in Matrigel-coated flasks prepared with a working solution of 1X Ham's F-12 nutrient mix, without supplementation (Thermo Fisher Scientific, cat. 11765054), 100 U/mL penicillin-streptomycin (Thermo Fisher Scientific, cat. 15140122), and 2.5% Matrigel (Corning Inc., Corning, NY, cat. 354248) for the first three passages. The two PDC lines 997537-175-T-J1-PDC and 415267-285-R-J2-PDC were cultured on uncoated flasks. The 857933-349-R-J2-PDC line was cultured in 6C/Colon 1B media containing advanced DMEM/F-12 (Thermo Fisher Scientific, cat. 12634028), 10 mM HEPES (Thermo Fisher Scientific, cat. 15630080), 1X GlutaMAX supplement (Thermo Fisher Scientific, cat. 35050061), 0.1 mg/mL primocin (InvivoGen, San Diego, CA, cat. ant-pm-2), 10% defined fetal bovine serum, heat inactivated (HyClone Laboratories Inc., Logan, UT, cat. SH30070.03HI), 50% L-WRN conditioned media (ATCC, cat. CRL-3276), 1.25 mM N-Acetyl-L-cysteine (Sigma-Aldrich, cat. A9165), 10 mM nicotinamide (Sigma-Aldrich, cat. N0636), 1X B-27 supplement (Thermo Fisher Scientific, cat. 17504044), 1X N-2 supplement (Thermo Fisher Scientific, cat. […]
# [1] = second compound 0.0316 µM, first compound 0.0316 µM
# [2] = second compound 0.0316 µM, first compound 0.1 µM
# [3] = second compound 0.0316 µM, first compound 0.316 µM
# [4] = second compound 0.0316 µM, first compound 1 µM
# [5] = second compound 0.1 µM, first compound 0.0316 µM
# [6] = second compound 0.1 µM, first compound 0.1 µM
# [7] = second compound 0.1 µM, first compound 0.316 µM
# [8] = second compound 0.1 µM, first compound 1 µM
# [9] = second compound 0.316 µM, first compound 0.0316 µM
# [10] = second compound 0.316 µM, first compound 0.1 µM
# [11] = second compound 0.316 µM, first compound 0.316 µM
# [12] = second compound 0.316 µM, first compound 1 µM
# [13] = second compound 1 µM, first compound 0.0316 µM
# [14] = second compound 1 µM, first compound 0.1 µM
# [15] = second compound 1 µM, first compound 0.316 µM
# [16] = second compound 1 µM, first compound 1 µM
# [17] = second compound 3.16 µM, first compound 0.0316 µM
# [18] = second compound 3.16 µM, first compound 0.1 µM
# [19] = second compound 3.16 µM, first compound 0.316 µM
# [20] = second compound 3.16 µM, first compound 1 µM
# [21] = second compound 10 µM, first compound 0.0316 µM
# [22] = second compound 10 µM, first compound 0.1 µM
# [23] = second compound 10 µM, first compound 0.316 µM
# [24] = second compound 10 µM, first compound 1 µM
# 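Also: spheroids exposed to compounds for 7 days before readout.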
# 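For viability, T/C in this document: 100% = DMSO vehicle control viability.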
structure (smiles),measurement,setting,value
COc1cccc(OCCCN)c1-c1cc(Nc2cnc(C#N)cn2)n[nH]1 + Nc1ccc(C#CCN(C(=O)Cc2ncc(C(F)(F)F)cc2C(F)(F)F)c2ccc(F)cc2)nn1,IC50,second compound 0.0316 µM,718 nM
same,IC50,second compound 0.1 µM,587 nM
same,IC50,second compound 0.316 µM,666 nM
same,IC50,second compound 1 µM,728 nM
same,IC50,second compound 3.16 µM,425 nM
same,IC50,second compound 10 µM,87.4 nM
same,"viability, T/C","second compound 0.0316 µM, first compound 0.00316 µM",114%
same,"viability, T/C","second compound 0.0316 µM, first compound 0.01 µM",89.4%
same,"viability, T/C",[1],105%
same,"viability, T/C",[2],83.4%
same,"viability, T/C",[3],55.9%
same,"viability, T/C",[4],47.5%
same,"viability, T/C","second compound 0.1 µM, first compound 0.00316 µM",104%
same,"viability, T/C","second compound 0.1 µM, first compound 0.01 µM",105%
same,"viability, T/C",[5],100%
same,"viability, T/C",[6],82.8%
same,"viability, T/C",[7],57.8%
same,"viability, T/C",[8],43.5%
same,"viability, T/C","second compound 0.316 µM, first compound 0.00316 µM",102%
same,"viability, T/C","second compound 0.316 µM, first compound 0.01 µM",106%
same,"viability, T/C",[9],103%
same,"viability, T/C",[10],85.1%
same,"viability, T/C",[11],67.9%
same,"viability, T/C",[12],40.7%
same,"viability, T/C","second compound 1 µM, first compound 0.00316 µM",106%
same,"viability, T/C","second compound 1 µM, first compound 0.01 µM",95.2%
same,"viability, T/C",[13],89.4%
same,"viability, T/C",[14],80.9%
same,"viability, T/C",[15],70.5%
same,"viability, T/C",[16],42%
same,"viability, T/C","second compound 3.16 µM, first compound 0.00316 µM",102%
same,"viability, T/C","second compound 3.16 µM, first compound 0.01 µM",93.2%
same,"viability, T/C",[17],83.4%
same,"viability, T/C",[18],70.4%
same,"viability, T/C",[19],51.5%
same,"viability, T/C",[20],41.4%
same,"viability, T/C","second compound 10 µM, first compound 0.00316 µM",93.3%
same,"viability, T/C","second compound 10 µM, first compound 0.01 µM",96.5%
same,"viability, T/C",[21],73%
same,"viability, T/C",[22],46.8%
same,"viability, T/C",[23],49.9%
same,"viability, T/C",[24],44.2%
O=C(c1cc(Cc2n[nH]c(=O)c3ccccc23)ccc1F)N1CCN(C(=O)C2CC2)CC1 + Nc1ccc(C#CCN(C(=O)Cc2ncc(C(F)(F)F)cc2C(F)(F)F)c2ccc(F)cc2)nn1,IC50,second compound 0.0316 µM,> 10000 nM
same,IC50,second compound 0.1 µM,> 10000 nM
same,IC50,second compound 0.316 µM,> 10000 nM
same,IC50,second compound 1 µM,> 10000 nM
same,IC50,second compound 3.16 µM,> 10000 nM
same,IC50,second compound 10 µM,> 10000 nM
same,"viability, T/C",[1],105%
same,"viability, T/C",[2],101%
same,"viability, T/C",[3],90.1%
same,"viability, T/C",[4],98.5%
same,"viability, T/C","second compound 0.0316 µM, first compound 3.16 µM",98.2%
same,"viability, T/C","second compound 0.0316 µM, first compound 10 µM",99.8%
same,"viability, T/C",[5],101%
same,"viability, T/C",[6],97.4%
same,"viability, T/C",[7],90.3%
same,"viability, T/C",[8],96.1%
same,"viability, T/C","second compound 0.1 µM, first compound 3.16 µM",110%
same,"viability, T/C","second compound 0.1 µM, first compound 10 µM",90%
same,"viability, T/C",[9],106%
same,"viability, T/C",[10],104%
same,"viability, T/C",[11],93.8%
same,"viability, T/C",[12],97%
same,"viability, T/C","second compound 0.316 µM, first compound 3.16 µM",101%
same,"viability, T/C","second compound 0.316 µM, first compound 10 µM",97.2%
same,"viability, T/C",[13],104%
same,"viability, T/C",[14],96.1%
same,"viability, T/C",[15],94.3%
same,"viability, T/C",[16],90.3%
same,"viability, T/C","second compound 1 µM, first compound 3.16 µM",105%
same,"viability, T/C","second compound 1 µM, first compound 10 µM",90.4%
same,"viability, T/C",[17],103%
same,"viability, T/C",[18],103%
same,"viability, T/C",[19],95.4%
same,"viability, T/C",[20],100%
same,"viability, T/C","second compound 3.16 µM, first compound 3.16 µM",105%
same,"viability, T/C","second compound 3.16 µM, first compound 10 µM",105%
same,"viability, T/C",[21],95.5%
same,"viability, T/C",[22],93.6%
same,"viability, T/C",[23],104%
same,"viability, T/C",[24],96.7%
same,"viability, T/C","second compound 10 µM, first compound 3.16 µM",97.1%
same,"viability, T/C","second compound 10 µM, first compound 10 µM",102%
